The results in this text go back to patent publication US8242118B2, “Arylsulfonamide derivatives for use as CCR3 antagonists in the treatment of inflammatory and immunological disorders” (Axikin Pharmaceuticals Inc., priority 2001, dated 2012).

The target in series [1] is T1, Human CCR3 (Homo sapiens, UniProt P51677).
T1 construct: The cloned CCR3 cDNA was constructed with pcDNA3 vector and transfected into a IC562 cell line; expressed in transfected cells
T1 sequence (P51677 1-355): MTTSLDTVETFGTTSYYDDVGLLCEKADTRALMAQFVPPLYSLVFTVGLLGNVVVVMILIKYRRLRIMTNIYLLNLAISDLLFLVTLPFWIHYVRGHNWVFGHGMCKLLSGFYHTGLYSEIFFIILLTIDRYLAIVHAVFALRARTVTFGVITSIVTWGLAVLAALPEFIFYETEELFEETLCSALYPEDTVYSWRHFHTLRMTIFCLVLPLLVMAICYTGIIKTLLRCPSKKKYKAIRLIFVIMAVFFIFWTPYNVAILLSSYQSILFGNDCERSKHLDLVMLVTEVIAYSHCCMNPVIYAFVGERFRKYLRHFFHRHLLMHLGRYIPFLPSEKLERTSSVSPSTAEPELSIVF
As to the kind of experiment: Calcium mobilization assay, eotaxin-stimulated. It is filed as cell-based. The conditions noted are these: human CCR3-transformed K562 cells, 10 nM eotaxin; compounds of about 40 to 90% purity; read-out: Activity grade Ca2+ (IC50 class). The procedure: • Human CCR3-transformed K562 cells were used. The cloned CCR3 cDNA was constructed with pcDNA3 vector and transfected into a IC562 cell line. The human CCR3-transformed K562 cells were maintained in RPMI-1640 (Cat.#22400-089, Life Technologies) supplemented with 10% FCS (Cat.#A-1115-L, Hyclone), 55 μM 2-mercaptoethanol (Cat.#21985-023, Life Technologies), 1 mM sodium pyruvate (Cat.#11360-070, Life Technologies), 100 units/ml of penicillin G and 100 μg/ml of streptomycin (Cat.#15140-122, Life Technologies), and 0.4 mg/ml of Geneticin (Cat.#10131-035, Life Technologies)(hereinafter called “culture medium”). Before the receptor binding assay, cells were pretreated with 5 mM sodium butyrate (Cat.#193-01522, Wako)-containing the culture medium (2×10^5 cells/ml) for 20-24 hours to increase the expression of CCR3. (2) Receptor Binding Assay (RBA) • Butyrate-pretreated cells, suspended in binding buffer (25 mM HEPES pH 7.6, 1 mM CaCl2, 5 mM MgCl2, 0.5% BSA, 0.1% NaN3) at a cell density of 2×10^6 cells/ml, were added into 60 μl/well in the 96-well round bottom polypropylene plate (Cat.#3365, Costar). Compounds, diluted with the binding buffer (4-times higher concentration of the final concentration), were added into 30 μl/well in the polypropylene plate. [^125I]-labeled human eotaxin (Cat.#IM290, Amersham Pharmacia Biotech), diluted with the binding buffer at the concentration of 0.4 nM (final concentration; 0.1 nM), was added into 30 μl/well in the polypropylene plate. Total 120 μl/well of binding reaction mixture (60 μl/well of cell suspension, 30 μl/well of compound solution, and 30 μl/well of [^125I]-labeled eotaxin) were incubated in the polypropylene plate for 1 hour at room temperature after the incubation, 100 μl/well of the reaction mixture was transferred to a filtration plate (Cat.#MAFB-N0B, Millipore), and washed with the washing buffer (25 mM HEPES pH 7.6, 1 mM CaCl2, 5 mM MgCl2, 0.5% BSA, 0.1% NaN3, 0.5 M NaCl) twice. The 96-well filtration plate was pretreated with 100 μl/well of 0.5% polyethylenimine (Cat.#P-3143, Sigma) for 2-4 hours at room temperature and washed with the washing buffer twice before use. The non-specific binding was determined by parallel incubation in the presence of 500 nM of non-labeled eotaxin (Cat.#23209, Genzyme Techne). The radioactivities remained on the filter were measured by liquid scintillation counter (TopCount™, Packard) after an addition of 45 μl/well of scintillant (Microscint20, Cat.#6013621, Packard). The inhibition percent at each concentration of compound was calculated, and IC50 values were determined from the inhibition curve. [Determination of IC50 Values of Compounds in Calcium Mobilization Assay] (IC50 Ca2+) (1) Cell • Human CCR3-transformed K562 cells were used. The human CCR3-transformed K562 cells were maintained in RPMI-1640 supplemented with 10% FCS, 55 μM 2-mercaptoethanol (Cat.#21985-023, Life Technologies), 1 mM sodium pyruvate, 100 units/ml of penicillin G and 100 μg/ml of streptomycin and 0.4 mg/ml of Geneticin. Before the calcium mobilization assay, cells were pretreated with 5 mM sodium butyrate-containing the culture medium (2×10^5 cells/ml) for 20-24 hours to increase the expression of CCR3. (2) Calcium Mobilization Assay • Butyrate-pretreated cells were loaded with Fluo-3AM (Cat.#F-1242, Molecular Probes) in loading buffer (Hanks' solution Cat.#05906 Nissui, 20 mM HEPES pH 7.6, 0.1% BSA, 1 mM probenecid Cat.#P-8761 Sigma, 1 μM Fluo-3AM, 0.01% pluronic F-127 Cat.#P-6866 Molecular Probes) at a cell density of 1×10^7 cells/ml. Then, cells were washed with calcium assay buffer (Hanks' solution Cat.#05906 Nissui, 20 mM HEPES pH 7.6, 0.1% BSA, 1 mM Probenecid Cat.#P-8761 Sigma). The cell suspension (3.3×10^6 cells/ml) was added into 60 μl/well in the 96-well clear bottom black plate (Cat.#3904, Costar). Compounds, diluted (5-times concentration of the final concentration) with the calcium assay buffer, were added into 20 μl/well in the plate 10 minutes before assay. […]
Background: Calcium assays in cells follow changes in intracellular calcium, usually with a dye or a luminescent sensor.

Some results are limits rather than exact numbers.

For orientation: IC50 means the concentration that inhibits the measured activity by half. By melting point is commonly meant the temperature, or range, at which the solid turns liquid. In turn, `Cl.O=[N+]([O-])c1ccc(Oc2cccc(-c3ccccc3)c2)c(S(=O)(=O)N2CCNCC2)c1` [Example 1-68] yielded a melting point of 99 °C. Besides, the half-maximal inhibitory concentration (IC50) in series [1] is below 1000 nM.
For `CCN(CC)CCN1CCN(S(=O)(=O)c2cc([N+](=O)[O-])ccc2Oc2cc(Cl)cc(Cl)c2)CC1` [Example 4-30], in that order: 98 to 99 °C and below 1000 nM.
For `Cl.O=[N+]([O-])c1ccc(Sc2cc(C(F)(F)F)cc(C(F)(F)F)c2)c(S(=O)(=O)N2CCNCC2)c1` [Example 2-20], in that order: 230 to 231 °C and below 1000 nM.
In the same order, the values of `Cl.O=[N+]([O-])c1ccc(Sc2cc(Cl)cc(Cl)c2)c(S(=O)(=O)N2CCNCC2)c1` [Example 2-18] are 262 to 264 °C and below 1000 nM.
As to `CN(C)CC(C)(C)CN(C)S(=O)(=O)c1cc([N+](=O)[O-])ccc1Sc1cc(Cl)cc(Cl)c1` [Example 26-3], the melting point fell in the range of 144 to 145 °C. Moreover, the IC50 in series [1] was below 1000 nM.
Turning to `O=C(O)CCN1CCN(S(=O)(=O)c2cc([N+](=O)[O-])ccc2Oc2cc(Cl)cc(Cl)c2)CC1` [Example 1-98], the melting point fell in the range of 200 to 201 °C. For the same molecule, the IC50 in series [1] is below 1000 nM.
In the same order, the values of `CCOC(=O)CCN1CCN(S(=O)(=O)c2cc([N+](=O)[O-])ccc2Oc2cc(Cl)cc(Cl)c2)CC1` [Example 4-37] are 160 to 162 °C and below 1000 nM.
In the same order, the values of `Cc1cc(C)cc(Oc2cc(C)c(Cl)cc2S(=O)(=O)N2CCNCC2)c1.Cl` [Example 5-8] are 148 °C and below 1000 nM.
Consider `Cc1ccc(Oc2ccc([N+](=O)[O-])cc2S(=O)(=O)N2CCNCC2)cn1.Cl` [Example 1-70], for which the melting point turned out to be 237 °C. Also, the half-maximal inhibitory concentration (IC50) in series [1] was below 1000 nM.
For `NCCNS(=O)(=O)c1cc([N+](=O)[O-])ccc1Sc1cc(Cl)cc(Cl)c1` [Example 2-5], in that order: 189 °C and below 1000 nM.
For `O=C(O)CCN1CCN(S(=O)(=O)c2cc([N+](=O)[O-])ccc2Sc2cc(Cl)cc(Cl)c2)CC1` [Example 2-10], in that order: 209 to 211 °C and below 1000 nM.
For `Cl.Cl.O=[N+]([O-])c1ccc(Oc2cncc(Cl)c2)c(S(=O)(=O)N2CCNCC2)c1` [Example 1-55], in that order: 231 °C and below 1000 nM.
In the case of `COc1ccc(S(=O)(=O)N2CCNCC2)c(Oc2cc(C)cc(C)c2)c1.Cl` [Example 1-49], the melting point amounted to 125 °C. Also, the IC50 in series [1] was below 1000 nM.
In turn, `CN(C)CCN1CCN(S(=O)(=O)c2cc([N+](=O)[O-])ccc2Oc2cc(Cl)cc(Cl)c2)CC1` [Example 4-31] showed a melting point of 138 to 140 °C. The concentration for half-maximal inhibition (IC50) in series [1] is below 1000 nM.
For `Cl.O=[N+]([O-])c1ccc(Sc2ccc3ccccc3c2)c(S(=O)(=O)N2CCNCC2)c1` [Example 2-21], the melting point is 273 °C. The IC50 in series [1] was in the range of 1000 to 10000 nM.
For `Cc1cccc(Sc2ccc([N+](=O)[O-])cc2S(=O)(=O)N2CCNCC2)c1.Cl` [Example 2-16], in that order: 229 to 231 °C and below 1000 nM.
For `N#Cc1ccc(Oc2cc(Cl)cc(Cl)c2)c(S(=O)(=O)N2CCC[C@H]2CN2CCCC2)c1` [Example 13-3], in that order: 144 to 145 °C and below 1000 nM.
For `NCC1CCN(S(=O)(=O)c2cc([N+](=O)[O-])ccc2Oc2cc(Cl)cc(Cl)c2)CC1` [Example 1-97], in that order: 148 to 151 °C and below 1000 nM.
In turn, `Cc1cc(C)cc(Oc2ccc([N+](=O)[O-])cc2S(=O)(=O)N2C(C)CNCC2C)c1.Cl` (stereo not shown) [Example 1-94] displayed a melting point above 300 °C. Moreover, the IC50 in series [1] was below 1000 nM.
`CN(C)CC(C)(C)CNS(=O)(=O)c1cc([N+](=O)[O-])ccc1Oc1cc(Cl)cc(Cl)c1` [Example 4-35]: the melting point amounted to 134 °C. In addition, the IC50 in series [1] is below 1000 nM.
With `Cl.Nc1cccc(Oc2ccc([N+](=O)[O-])cc2S(=O)(=O)N2CCNCC2)c1` [Example 1-67], the melting point was 248 °C. For the same molecule, the IC50 in series [1] is below 1000 nM.
For the molecule `Cc1cc(Oc2ccc([N+](=O)[O-])cc2S(=O)(=O)N2CCNCC2)cc(C)c1C.Cl` [Example 1-69], the melting point is 248 °C. Also, in series [1], the IC50 is below 1000 nM.
For the molecule `Cl.O=[N+]([O-])c1ccc(Sc2cccc(F)c2)c(S(=O)(=O)N2CCNCC2)c1` [Example 2-19], the melting point fell in the range of 236 to 238 °C. For the same molecule, the concentration for half-maximal inhibition (IC50) in series [1] was below 1000 nM.
For `O=[N+]([O-])c1ccc(Sc2cc(Cl)cc(Cl)c2)c(S(=O)(=O)N2CCN(CC3CCCO3)CC2)c1` (stereo not shown) [Example 2-2], in that order: 147 to 148 °C and below 1000 nM.
For `CN(c1cccnc1)S(=O)(=O)c1cc(C#N)ccc1Oc1cc(Cl)cc(Cl)c1.Cl` [Example 13-10], the melting point is 104 °C. Also, in series [1], the IC50 is below 1000 nM.
For `Cc1ccc([N+](=O)[O-])c(Oc2ccc([N+](=O)[O-])cc2S(=O)(=O)N2CCNCC2)c1.Cl` [Example 1-75], in that order: 215 °C and below 1000 nM.
In the same order, the values of `CSCCCN1CCN(S(=O)(=O)c2cc(C#N)ccc2Sc2cc(Cl)cc(Cl)c2)CC1` [Example 17-2] are 124 °C and below 1000 nM.
In the same order, the values of `Cc1cc(O)cc(Oc2ccc([N+](=O)[O-])cc2S(=O)(=O)N2CCNCC2)c1.Cl` [Example 1-71] are 182 °C and below 1000 nM.
Consider `COc1cc(Oc2cc(Cl)cc(Cl)c2)c(S(=O)(=O)N2CCNCC2)cc1[N+](=O)[O-].Cl` [Example 1-50], for which the melting point came out at 181 °C. Further, the IC50 in series [1] was below 1000 nM.
For `Cl.O=S(=O)(c1c(F)cccc1Oc1cc(Cl)cc(Cl)c1)N1CCNCC1` [Example 1-59], in that order: 306 °C and below 1000 nM.
In the same order, the values of `Cl.O=[N+]([O-])c1ccc(Oc2c(F)c(F)c(F)c(F)c2F)c(S(=O)(=O)N2CCNCC2)c1` [Example 1-73] are 297 °C and below 1000 nM.
In the same order, the values of `Cl.O=[N+]([O-])c1ccc(Oc2ccc3c(c2)CCCC3)c(S(=O)(=O)N2CCNCC2)c1` [Example 1-72] are 168 °C and below 1000 nM.
